From US12448373B2, “Azetidinyl-acetamides as CXCR7 inhibitors” (CHEMOCENTRYX, INC., priority 2021, dated 2025)

What follows are compounds tested against T1, CXCR7 (Homo sapiens, UniProt P25106) (assay: CXCR7 β-arrestin recruitment assay in CHO-CXCR7 cells (ProLink/EA β-galactosidase complementation), induced by human SDF-1a). Conditions: assay buffer, SDF-1a at EC50 concentration.
T1 construct: expressed in transfected cells; host or cells: CHO cells (CHO-CXCR7), transgenes maintained with Hygromycin B and G418
T1 sequence (P25106 whole entry): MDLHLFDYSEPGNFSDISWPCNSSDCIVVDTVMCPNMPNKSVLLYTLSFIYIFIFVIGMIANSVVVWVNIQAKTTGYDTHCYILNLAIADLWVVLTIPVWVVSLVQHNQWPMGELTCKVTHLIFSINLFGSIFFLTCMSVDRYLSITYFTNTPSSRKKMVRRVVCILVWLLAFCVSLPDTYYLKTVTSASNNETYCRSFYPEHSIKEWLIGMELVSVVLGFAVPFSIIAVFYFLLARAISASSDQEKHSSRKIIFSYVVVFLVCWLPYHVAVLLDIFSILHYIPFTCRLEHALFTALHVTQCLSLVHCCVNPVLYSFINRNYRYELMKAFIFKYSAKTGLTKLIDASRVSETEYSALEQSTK
Format: cell-based
Outline: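 SDF-1α-induced β-arrestin recruitment was measured by enzyme-fragment complementation (ProLink-CXCR7 with β-arrestin-EA) in stable CHO cells. Agonist was dosed at its EC50, determined the same day, alongside serially diluted compound for 1.5 h at 37 °C. Fluorogenic galactoside substrate (0.4 mM, 30 min) was read at 360/465 nm, with IC50 from 3-parameter nonlinear regression.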

Row | Structure (SMILES) | IC50
1 | CC(C)CN1CC(CC(=O)NC(C)(C)c2ccccn2)(NC(=O)c2cc(-c3ccc(F)cc3F)on2)C1 [Example 1.129] | 5 to 100 nM
2 | CC(C)(NC(=O)CC1(NC(=O)c2nnc(-c3ccc(F)cc3F)s2)CN([C@H]2CC[C@](C)(O)CC2)C1)c1cc(F)ccc1F [Example 1.024] | 5 to 100 nM
3 | COC1CCC(N2CC(CC(=O)NC(C)(C)c3ccccn3)(NC(=O)c3cc(-c4ccc(F)cc4F)on3)C2)CC1 (stereo not shown) [Example 1.299] | 5 to 100 nM
4 | CC(C)(O)CN1CC(CC(=O)NC(C)(C)c2cc(Cl)ccc2F)(NC(=O)c2cc(-c3ccc(F)cc3F)on2)C1 [Example 1.134] | 5 to 100 nM
5 | O=C(CC1(NC(=O)c2cc(-c3ccc(F)cc3F)on2)CN(CC2CC2)C1)NC1(c2ccccc2)CC1 [Example 1.321] | 100 to 1000 nM
6 | CC(C)CN1CC(CC(=O)NC(C)(C)c2ccnc3[nH]ccc23)(NC(=O)c2cc(-c3ccc(F)cc3F)on2)C1 [Example 1.077] | < 5 nM
7 | CC(C)(NC(=O)CC1(NC(=O)c2cc(-c3ccc(F)cc3F)on2)CN(C2CCCCC2)C1)c1cccc(F)c1 [Example 1.301] | < 5 nM
8 | C[C@]1(O)CC[C@H](N2CC(CC(=O)NCc3c[nH]c4ccccc34)(NC(=O)c3cc(-c4ccc(F)cc4F)on3)C2)CC1 [Example 1.279] | 5 to 100 nM
9 | CC(C)(NC(=O)CC1(NC(=O)c2cc(-c3ccc(F)cc3F)on2)CN(C2CCCCC2)C1)c1cccc(C(F)(F)F)c1 [Example 1.271] | 100 to 1000 nM
10 | O=C(CC1(NC(=O)c2cc(-c3ccc(F)cc3F)on2)CN(C2CCCCC2)C1)N[C@H](CO)c1ccccc1 [Example 1.316] | 5 to 100 nM
11 | CC(C)(NC(=O)CC1(NC(=O)c2cc(-c3ccc(F)cc3F)on2)CN(CC2CC2)C1)c1ccccc1 [Example 1.322] | 5 to 100 nM
12 | CC(C)(NC(=O)CC1(NC(=O)c2ccn(-c3ccc(F)cc3F)n2)CN([C@H]2CC[C@](C)(O)CC2)C1)c1cccc(Cl)c1 [Example 1.056] | 1000 to 20000 nM
13 | Cn1nc(-c2ccc(F)cc2F)cc1C(=O)NC1(CC(=O)NC(C)(C)c2cccc(Cl)c2)CN([C@H]2CC[C@](C)(O)CC2)C1 [Example 1.059] | 1000 to 20000 nM
14 | Cc1cccc(C(C)(C)NC(=O)CC2(NC(=O)c3cc(-c4ccc(F)cc4F)on3)CN(CC(C)C)C2)n1 [Example 1.026] | 5 to 100 nM
15 | Cc1cc(C(C)(C)NC(=O)CC2(NC(=O)c3cc(-c4ccc(F)cc4F)on3)CN(CC3(O)CCC3)C2)ccn1 [Example 1.150] | 100 to 1000 nM
16 | COc1cccc(C(C)(C)NC(=O)CC2(NC(=O)c3cc(-c4ccc(F)cc4F)on3)CN(CC3(C)COC3)C2)c1 [Example 1.174] | 100 to 1000 nM
17 | Cc1cc(C(C)(C)NC(=O)CC2(NC(=O)c3cc(-c4ccc(F)cc4F)on3)CN(CC(C)(C)O)C2)ccn1 [Example 1.175] | 5 to 100 nM
18 | CC(C)(NC(=O)CC1(NC(=O)c2cc(-c3ccc(F)cc3F)on2)CN([C@H]2CCCCC2(C)C)C1)c1ccccn1 [Example 1.275] | < 5 nM
19 | CC(C)(NC(=O)CC1(NC(=O)c2cc(-c3ccc(F)cc3F)on2)CN(C2CCCCC2)C1)c1nccs1 [Example 1.276] | 5 to 100 nM
20 | CC(C)(NC(=O)CC1(NC(=O)c2cc(-c3ccc(F)cc3F)on2)CN(CC2CCOCC2)C1)c1ccccn1 [Example 1.222] | 100 to 1000 nM
21 | CC(C)(NC(=O)CC1(NC(=O)c2cc(-c3ccc(F)cc3F)on2)CN(C2CCC(O)CC2)C1)c1ccccn1 (stereo not shown) [Example 1.300] | 5 to 100 nM
22 | CC(C)(NC(=O)CC1(NC(=O)c2cn(-c3ccc(F)cc3F)nn2)CN(C2CCCCC2)C1)c1cccc(Cl)c1 [Example 1.076] | 5 to 100 nM
23 | Cc1cc(C)nc(C(C)(C)NC(=O)CC2(NC(=O)c3cc(-c4ccc(F)cc4F)on3)CN(C3CCOCC3(C)C)C2)n1 (stereo not shown) [Example 1.351] | 100 to 1000 nM
24 | CC(C)(NC(=O)CC1(NC(=O)c2cc(-c3ccc(F)cc3F)on2)CN(C2CCCCC2)C1)c1cccc(F)n1 [Example 1.297] | < 5 nM

Next, values leading:

Row | IC50 | Structure (SMILES)
25 | < 5 nM | CC(C)(NC(=O)CC1(NC(=O)c2cc(-c3ccc(F)cc3F)on2)CN([C@H]2CC[C@@](C)(O)CC2)C1)c1ccccn1 [Example 1.192]
26 | 1000 to 20000 nM | CC(C)(NC(=O)CC1(NC(=O)c2csc(-c3ccc(F)cc3F)n2)CN([C@H]2CC[C@@](C)(O)CC2)C1)c1cccc(Cl)c1 [Example 1.050]
27 | 5 to 100 nM | Cc1cc(C(F)(F)F)cc(C(C)(C)NC(=O)CC2(NC(=O)c3cc(-c4ccc(F)cc4F)on3)CN([C@H]3CC[C@](C)(O)CC3)C2)n1 [Example 1.343]
28 | 5 to 100 nM | CCc1cccc(C(C)(C)NC(=O)CC2(NC(=O)c3cc(-c4ccc(F)cc4F)on3)CN([C@H]3CC[C@](C)(O)CC3)C2)c1 [Example 1.209]
29 | 100 to 1000 nM | Cc1cc(C)nc(C(C)(C)NC(=O)CC2(NC(=O)c3nnc(-c4ccc(F)cc4F)o3)CN([C@H]3CC[C@@](C)(O)CC3)C2)n1 [Example 1.057]
30 | < 5 nM | Cc1ccnc(C(C)(C)NC(=O)CC2(NC(=O)c3cc(-c4ccc(F)cc4F)on3)CN([C@H]3CC[C@](C)(O)CC3)C2)n1 [Example 1.202]
31 | < 5 nM | CC(C)(NC(=O)CC1(NC(=O)c2cc(-c3ccc(F)cc3F)on2)CN([C@H]2CC[C@@](C)(O)CC2)C1)c1cc(Cl)ccc1Cl [Example 1.085]
32 | < 5 nM | Cc1cc(Cl)cc(C(C)(C)NC(=O)CC2(NC(=O)c3nnc(-c4ccc(F)cc4F)s3)CN([C@H]3CC[C@](C)(O)CC3)C2)n1 [Example 1.006]
33 | 5 to 100 nM | Cc1ccnc(C(C)(C)NC(=O)CC2(NC(=O)c3nnc(-c4ccc(F)cc4F)s3)CN([C@H]3CC[C@](C)(O)CC3)C2)n1 [Example 1.041]
34 | < 5 nM | CC(C)(NC(=O)CC1(NC(=O)c2cc(-c3ccc(F)cc3F)on2)CN([C@H]2CC[C@@](C)(O)CC2)C1)c1cc(F)cc(Cl)c1 [Example 1.123]
35 | 100 to 1000 nM | CC(C)(NC(=O)CC1(NC(=O)c2cc(-c3ccc(F)cc3F)on2)CN([C@H]2CC[C@@](C)(O)CC2)C1)c1ccccn1 [Example 1.034]
36 | 5 to 100 nM | CC(C)(NC(=O)CC1(NC(=O)c2cc(-c3ccc(F)cc3F)on2)CN([C@H]2CC[C@](C)(O)CC2)C1)c1ccc(F)cc1 [Example 1.260]
37 | 5 to 100 nM | COc1cc(C(C)(C)NC(=O)CC2(NC(=O)c3cc(-c4ccc(F)cc4F)on3)CN([C@H]3CC[C@@](C)(O)CC3)C2)ccc1F [Example 1.176]
38 | 100 to 1000 nM | Cc1nc(C(C)(C)NC(=O)CC2(NC(=O)c3cc(-c4ccc(F)cc4F)on3)CN(C3CCC4(CC3)COC4)C2)sc1C [Example 1.245]
39 | < 5 nM | CC(C)(NC(=O)CC1(NC(=O)c2cc(-c3ccc(F)cc3F)on2)CN([C@H]2CC[C@@](C)(O)CC2)C1)c1ncccn1 [Example 1.232]
40 | 5 to 100 nM | CC(C)(NC(=O)CC1(NC(=O)c2cc(-c3ccc(F)cc3F)on2)CN([C@H]2CC[C@](C)(O)CC2)C1)c1ccnc(C(F)(F)F)c1 [Example 1.166]
41 | < 5 nM | Cc1cccc(C(C)(C)NC(=O)CC2(NC(=O)c3cc(-c4ccc(F)cc4F)on3)CN([C@H]3CC[C@@](C)(O)CC3)C2)c1 [Example 1.214]

Row | IC50 | Structure (SMILES)
42 | 5 to 100 nM | Cc1ccnc(C(C)(C)NC(=O)CC2(NC(=O)c3nnc(-c4ccc(F)cc4F)s3)CN([C@H]3CC[C@](C)(O)CC3)C2)c1 [Example 1.338]
43 | < 5 nM | CC(C)(NC(=O)CC1(NC(=O)c2cc(-c3ccc(F)cc3F)on2)CN([C@H]2CC[C@](C)(O)CC2)C1)c1cccc(F)c1 [Example 1.289]
44 | 5 to 100 nM | CC(C)(NC(=O)CC1(NC(=O)c2cc(-c3ccc(F)cc3F)on2)CN([C@H]2CC[C@](C)(O)CC2)C1)c1ccnc(C2CC2)c1 [Example 1.147]
45 | 5 to 100 nM | CC(C)(NC(=O)CC1(NC(=O)c2cc(-c3ccc(F)cc3F)on2)CN([C@H]2CC[C@](C)(O)CC2)C1)c1ccc(F)c(F)c1 [Example 1.257]
46 | < 5 nM | Cc1cc(C(C)(C)NC(=O)CC2(NC(=O)c3cc(-c4ccc(F)cc4F)on3)CN([C@H]3CC[C@](C)(O)CC3)C2)ccn1 [Example 1.211]
47 | < 5 nM | Cc1cccc(C(C)(C)NC(=O)CC2(NC(=O)c3nnc(-c4ccc(F)cc4F)s3)CN([C@H]3CC[C@](C)(O)CC3)C2)n1 [Example 1.032]
48 | < 5 nM | CC(C)(NC(=O)CC1(NC(=O)c2cc(-c3ccc(F)cc3F)on2)CN([C@H]2CC[C@@](C)(O)CC2)C1)c1ccccc1F [Example 1.227]
49 | < 5 nM | COc1ccccc1C(C)(C)NC(=O)CC1(NC(=O)c2cc(-c3ccc(F)cc3F)on2)CN(C2CCC(C)(O)CC2)C1 (stereo not shown) [Example 1.241]
50 | 5 to 100 nM | CCc1cc(C(C)(C)NC(=O)CC2(NC(=O)c3cc(-c4ccc(F)cc4F)on3)CN([C@H]3CC[C@@](C)(O)CC3)C2)ccn1 [Example 1.148]
51 | 5 to 100 nM | COc1cc(C)nc(C(C)(C)NC(=O)CC2(NC(=O)c3cc(-c4ccc(F)cc4F)on3)CN([C@H]3CC[C@](C)(O)CC3)C2)c1 [Example 1.339]
52 | < 5 nM | COc1cc(F)cc(C(C)(C)NC(=O)CC2(NC(=O)c3cc(-c4ccc(F)cc4F)on3)CN([C@H]3CC[C@@](C)(O)CC3)C2)c1 [Example 1.169]
53 | < 5 nM | Cc1ccccc1C(C)(C)NC(=O)CC1(NC(=O)c2cc(-c3ccc(F)cc3F)on2)CN([C@H]2CC[C@](C)(O)CC2)C1 [Example 1.215]
54 | 5 to 100 nM | CC(C)(NC(=O)CC1(NC(=O)c2cc(-c3ccc(F)cc3F)on2)CN([C@H]2CC[C@@](C)(O)CC2)C1)c1cnccn1 [Example 1.157]
55 | < 5 nM | Cc1cc(Cl)cc(C(C)(C)NC(=O)CC2(NC(=O)c3cc(-c4ccc(F)cc4F)on3)CN([C@H]3CC[C@](C)(O)CC3)C2)c1 [Example 1.090]
56 | 5 to 100 nM | CC(C)(NC(=O)CC1(NC(=O)c2cc(-c3ccc(F)cc3F)on2)CN([C@H]2CC[C@](C)(O)CC2)C1)c1ccnc(C#N)c1 [Example 1.162]
57 | 5 to 100 nM | CC(C)(NC(=O)CC1(NC(=O)c2cc(-c3ccc(F)cc3F)on2)CN([C@H]2CC[C@](C)(O)CC2)C1)c1ccc(F)cc1Cl [Example 1.253]
58 | < 5 nM | CC(C)(NC(=O)CC1(NC(=O)c2cc(-c3ccc(F)cc3F)on2)CN([C@H]2CC[C@](C)(O)CC2)C1)c1ccccn1 [Example 1.303]
